Consider two compounds from patent US6334944B1, “Process for producing an amino acid-N,N-diacetic acid and its salts” (Showa Denko K.K., priority 1998, dated 2002).

This data set in a line: Hygroscopicity and redissolution of dried powder or crystal. The format is physicochemical. The note with it: for Hygroscopicity: dried powder or crystal. The procedure: The powder contained 9.98% of calcium.
The crystal was dried in air at 25° C. to reduce the moisture content to 0.7%.

For “calcium disodium glutamic acid-N,N-diacetate [Example 13]”, the Hygroscopicity entry is “free of hygroscopicity”. Also, the “Dissolution of powder in water” value (spray-dried powder) is “readily dissolved in water”.
As to `O=C([O-])CCC(C(=O)[O-])N(CC(=O)[O-])CC(=O)[O-].[Fe+3].[NH4+]` (stereo not drawn) [Example 22, ammonium ferric salt of glutamic acid-N,N-diacetic acid], the Hygroscopicity result is recorded as “free of hygroscopicity”.
